From US10472599B2, “Microfluidic cell culture of patient-derived tumor cell spheroids” (Dana-Farber Cancer Institute, Inc., priority 2015, dated 2019)

What was measured:
Assay type in all cases: cell-based, human
[1] = tested on: spheroids derived from multiple different melanoma resection specimens; assay: Light microscopy of immune response in patient-derived melanoma spheroids in 3D microfluidic culture; conditions: pembrolizumab 250 μg/mL
Experimental: On Day 1, tumor was collected in an operating room and placed in a sterile 15 mL conical tube bathed with culture media (10% FBS with DMEM or RPMI) and stored on ice. The media was aspirated in a sterile hood and the tumor specimen gently placed in a normal 10 cm culture dish on ice. Using a scalpel, the tumor was minced into smaller pieces. A sample can optionally be exposed to strong collagenase treatment to generate single cells that can be submitted directly for flow cytometry. To the 10 cm dish containing the minced tumor was added 10 mL of collagenase solution (10 mL media, 150 μL HEPES (15 mM final concentration), 100 μL collagenase (100 U/μL stock, 1 unit/μL final concentration)). The minced tumor and collagenase mixture was subsequently transferred to a 50 mL conical tube, and then transferred to a fresh low-attachment 10 cm dish. The low-attachment dish comprising the sample was incubated at 37° C. for 30-60 minutes while checking every 15-30 minutes, as the duration of time required varies from specimen to specimen. The intended outcome of this step is to generate multicellular spheroids via a limited collagenase digestion, so the sample should not be comprised entirely of single cells. After the […] incubation period, 10 mL of fresh media was added to the dish containing the tumor sample and the contents (˜20 mL) transferred to a 50 mL conical tube. […]

[2] = tested on: spheroids derived from multiple different melanoma resection specimens; assay: Luminex cytokine profiling of conditioned media from melanoma spheroid culture
Experimental: On Day 3, media was aspirated from the device and ˜200 μL media (1:1 mixture of 10% FBS-DMEM and EGM2 supplemented with growth factors per protocol) with or without treatment (e.g., anti-PD-1 monoclonal Ab) were added to each device. The devices were subsequently placed in humidified, sterile containers, and returned to 37° C. incubation.
On Day 6 (or 48-72 hours post-treatment), conditioned media was collected for cytokine analysis. Light microscopy was performed and images obtained to characterize and document spheroid dispersal and/or putative immune response, which is commonly characterized by non-pigmented cells surrounding the brown-pigmented melanoma spheroids. Media was collected from each device by aspiration using a 200 μL pipet, transferred to sterile 1.5 mL Eppendorf tubes, and frozen at −80° C. prior to submission to CMOP for multiplex cytokine/chemokine analysis. Also on Day 6, the cells present in the 3D culture device following treatment were characterized by multiple methods.
As the spheroids and co-cultured endothelial cells are bathed in media, the conditioned media was extracted from the device and luminex cytokine profiling was performed.

[3] = tested on: melanoma tumor spheroids; assay: Flow cytometry immune profiling of cells extracted from the device post-treatment
Experimental: For flow cytometry, RNA sequencing analysis, or T-cell receptor (TCR) sequencing the cells were removed using collagenase (150 μL per device) after media had been removed. […] The cells in collagenase were aspirated into a 15 mL conical tube containing 4.0 mL of sterile 1× PBS and spun down for 5 minutes at 1100 rpm. The PBS wash was gently aspirated and the pellet resuspended in 1.5 mL 10% FBS-DMEM for flow cytometry. In some instances, genomic DNA is prepared from flow-sorted T lymphocytes for TCR sequencing using the ImmunoSeq platform from Adaptive Biotechnologies to evaluate T-cell receptor clonality. Clonality can be assessed in spheroids relative to bulk tumor, and in response to immune checkpoint blockade to evaluate for increased TCR clonality (indicating expansion of tumor-reactive T cell clones). For RNA sequencing, the resuspension can be performed using 1.5 mL 10% FBS-DMEM, PBS, or a compatible lysis buffer.
Additionally, although it was demonstrable by flow cytometry of melanoma tumor spheroids at baseline that they consisted of up to 20% immune cells, including T cells, dendritic cells, monocytes (not shown), the value of extracting cells from the device and repeating flow cytometry post-treatment was realized. By repeating collagenase digestion within the device and washing cells in PBS, conditions have been developed that enable repeat immune profiling. […]

## pembrolizumab
[1]; absence of anti-CD28 co-stimulation (FIG. 4A)
  immune response: observed immune response
[1]; presence of anti-CD28 co-stimulation (FIG. 4B)
  immune response: observed immune response
[2]; combination with anti-CD28 (FIG. 5)
  certain cytokines (e.g., IP10) in conditioned media: induced
[2]; following αPD1 exposure (FIG. 5)
  cytokines in conditioned media: pronounced up-regulation of multiple cytokines
[3]; post-treatment flow cytometry (FIG. 6A)
  markers of early CD8 T cell activation such as CD69: observed increase
[3]; post-treatment flow cytometry (FIG. 6B)
  specific immune checkpoint receptors such as TIM3: increase
